Drawing on PubChem BioAssay (NCI), this text covers TGI and GI50 for 18 molecules.

Among the test systems are A498 renal; ACHN renal; CCRF-CEM leukemia; HOP-62 NSCLC; IGROV1 ovarian; NCI-H522 lung; OVCAR-8 ovarian; SF-268 CNS; SK-OV-3 ovarian; SNB-75 CNS; TK-10 renal; NCI-H460 lung.
Holding throughout (assay): growth of human tumour cells (NCI), 48 h

“And” between values parts separate entries of the source, which are not always exact repeats. Equal values may be shown once.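 Growth conditions: 96-well plates. Treatment: test compound, 48 hours, 5 concentrations. Analysis: linear interpolation between bracketing concentrations; unreached endpoints set to highest concentration. GI50 is the concentration that inhibits growth by half. TGI denotes the concentration required for complete inhibition of growth.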 Bounds are passed on as bounds.

With `CCn1c(=O)c2c3ccc(O)cc3[nH]c2c2ccc(O)cc21`, the TGI in the assay on A498 renal, in the assay with ACHN renal, in the assay on CCRF-CEM leukemia, in the assay with HOP-62 NSCLC, in the assay with IGROV1 ovarian and in the assay on NCI-H522 lung was over 100 µM each time. Besides, the TGI in the assay with OVCAR-8 ovarian, in the assay on SF-268 CNS, in the assay on SK-OV-3 ovarian, in the assay with SNB-75 CNS and in the assay on TK-10 renal was over 100 µM throughout.
`O=C(N/N=C/c1cc(Cl)cc(Cl)c1[O-])c1ccccc1O.O=C(N/N=C/c1cc(Cl)cc(Cl)c1[O-])c1ccccc1O.[Fe+2]`: the TGI in the assay with ACHN renal was 27.7 µM; in the assay with CCRF-CEM leukemia, over 100 µM; in the assay on HOP-62 NSCLC it was 44.4 µM; in the assay on IGROV1 ovarian it was 56.5 µM; in the assay with NCI-H460 lung it was 38.5 µM; in the assay on NCI-H522 lung, 23.8 µM. Besides, the TGI in the assay on OVCAR-8 ovarian was 34.3 µM; with SF-268 CNS, 38.9 µM; in the assay with SK-OV-3 ovarian it was 39.1 µM; with SNB-75 CNS it was 72.9 µM; in the assay with TK-10 renal, over 100 µM.
With `O=c1[nH]c(Br)nc2n[nH]nc12`, the TGI with A498 renal was over 100 µM; in the assay with ACHN renal, over 100 µM; in the assay with CCRF-CEM leukemia, over 100 µM; in the assay on HOP-62 NSCLC, 94.8 µM; in the assay on IGROV1 ovarian it was over 100 µM; in the assay on NCI-H460 lung, over 100 µM. In addition, the TGI in the assay on NCI-H522 lung, in the assay on OVCAR-8 ovarian, in the assay on SF-268 CNS, in the assay with SK-OV-3 ovarian, in the assay with SNB-75 CNS and with TK-10 renal was over 100 µM each time.
`CC(=O)OC1(C)CC(C)C(=O)C(C(O)CC2CC(=O)NC(=O)C2)C1` (stereo not drawn): the TGI in the assay on A498 renal was 0.266 µM and 0.0863 µM; with ACHN renal, 0.131 µM and 0.107 µM; in the assay on HOP-62 NSCLC, 0.0683 µM; in the assay on IGROV1 ovarian it was 0.0489 µM; in the assay with NCI-H460 lung it was 0.363 µM and 0.224 µM; in the assay with NCI-H522 lung, 0.146 µM. Further, the TGI in the assay on OVCAR-8 ovarian is 0.965 µM and 0.406 µM; in the assay on SF-268 CNS it was 1.42 µM; in the assay on SK-OV-3 ovarian, 1.44 µM; in the assay on SNB-75 CNS it was 0.0119 µM; with TK-10 renal it was 0.164 µM. Besides, the GI50 in the assay on TK-10 renal is 0.0117 µM.
Take `O=[N+]([O-])c1cc(C(F)(F)F)cc2c1SC1=Nc3ccccc3CN12`: the TGI with A498 renal, in the assay on CCRF-CEM leukemia, with HOP-62 NSCLC, with IGROV1 ovarian, in the assay on NCI-H460 lung and in the assay on NCI-H522 lung was over 100 µM each time. The TGI in the assay on OVCAR-8 ovarian, in the assay on SF-268 CNS, in the assay with SK-OV-3 ovarian and in the assay on SNB-75 CNS was over 100 µM throughout.
As for `C[N+]1(C)C/C(=C\C=C\c2ccccc2)C(=O)/C(=C/C=C/c2ccccc2)C1`, the TGI is over 94.9 µM in the assay with A498 renal; over 100 µM with ACHN renal; 13.7 µM in the assay on CCRF-CEM leukemia; 46.3 µM with HOP-62 NSCLC; 35.8 µM in the assay with IGROV1 ovarian; 59.1 µM in the assay on NCI-H460 lung. The TGI was 21.5 µM in the assay on NCI-H522 lung; 53.1 µM in the assay on OVCAR-8 ovarian; 43.7 µM in the assay on SF-268 CNS; 98.8 µM with SK-OV-3 ovarian; 40.3 µM with SNB-75 CNS; over 67.1 µM in the assay with TK-10 renal.
With `CC(=O)C(C(=O)C(=O)Nc1cc(Cl)c(Cl)cc1Cl)c1csc(N)n1` (stereo not drawn), the TGI in the assay on A498 renal, in the assay with ACHN renal, with CCRF-CEM leukemia, in the assay on HOP-62 NSCLC, in the assay with IGROV1 ovarian and in the assay on NCI-H460 lung was over 100 µM throughout. Also, the TGI in the assay with NCI-H522 lung, in the assay with OVCAR-8 ovarian, in the assay on SF-268 CNS, with SK-OV-3 ovarian, with SNB-75 CNS and with TK-10 renal was over 100 µM in each case.
Turning to `NCCNc1ccc(NCCN)c2c1C(=O)c1c(O)ccc(O)c1C2=O`, the TGI was 0.37 µM in the assay with A498 renal; 0.117 µM and 0.0596 µM in the assay on ACHN renal; 3.79 µM with CCRF-CEM leukemia; 0.147 µM and 0.0642 µM in the assay with HOP-62 NSCLC; 1.17 µM and 1.5 µM in the assay on IGROV1 ovarian; 0.159 µM and 0.178 µM with NCI-H460 lung. In addition, the TGI with NCI-H522 lung is 0.467 µM and 0.15 µM; in the assay on OVCAR-8 ovarian, 0.466 µM and 0.353 µM; with SF-268 CNS, 0.985 µM and 3.24 µM; in the assay on SNB-75 CNS, 0.206 µM and 0.429 µM; in the assay with TK-10 renal it was 3.64 µM and 1.4 µM. The GI50 with HOP-62 NSCLC is 0.0189 µM; with IGROV1 ovarian it was 0.182 µM; in the assay with NCI-H522 lung, 0.018 µM; in the assay on OVCAR-8 ovarian it was 0.02 µM; in the assay on SF-268 CNS, 0.0222 µM; with SK-OV-3 ovarian it was 0.0151 µM. For the same molecule, the GI50 was 0.0227 µM in the assay with SNB-75 CNS and 0.289 µM in the assay on TK-10 renal.
Take `NCCCC(N)(C(=O)O)C(F)F` (stereo not drawn): the TGI in the assay on A498 renal was over 5000 µM; with CCRF-CEM leukemia it was over 1580 µM; in the assay on HOP-62 NSCLC, over 5000 µM; with IGROV1 ovarian, over 5000 µM; with NCI-H460 lung it was over 5000 µM; with NCI-H522 lung it was over 5000 µM. The TGI is over 1090 µM with OVCAR-8 ovarian, over 5000 µM with SF-268 CNS, over 5000 µM in the assay with SK-OV-3 ovarian and over 5000 µM with SNB-75 CNS.
Regarding `O=C(N/N=C/c1cc(Cl)cc(Cl)c1[O-])c1ccccc1O.O=C(N/N=C/c1cc(Cl)cc(Cl)c1[O-])c1ccccc1O.[Cu+2]`, the TGI with ACHN renal turned out to be 1.57 µM; in the assay on HOP-62 NSCLC, 0.901 µM; with IGROV1 ovarian, 1.16 µM; in the assay on NCI-H522 lung, 0.568 µM; in the assay with OVCAR-8 ovarian, 1.08 µM; with SF-268 CNS it was 1.61 µM. The TGI in the assay with SK-OV-3 ovarian came out at 1.38 µM; in the assay on SNB-75 CNS, 2.13 µM; in the assay with TK-10 renal, 1.65 µM.
In the case of `NC1C2C=CC(C2)C1C(=O)O` (stereo not drawn), the TGI with A498 renal, in the assay on ACHN renal, in the assay on CCRF-CEM leukemia, with HOP-62 NSCLC, in the assay on IGROV1 ovarian and with NCI-H522 lung was over 100 µM each time. The TGI in the assay with OVCAR-8 ovarian, in the assay on SF-268 CNS, in the assay with SK-OV-3 ovarian, in the assay with SNB-75 CNS and in the assay on TK-10 renal was over 100 µM throughout.
Consider `COc1cc2c(cc1OC)-c1cc3cc(OC)c(OC)cc3c(C)[n+]1CC2` (tested in a mixture with another compound), for which the TGI in the assay with A498 renal is over 100 µM; with ACHN renal, over 100 µM; with CCRF-CEM leukemia it was 77 µM; with HOP-62 NSCLC, over 100 µM; in the assay on IGROV1 ovarian, over 100 µM; with NCI-H460 lung it was 71.2 µM. The TGI in the assay with NCI-H522 lung, in the assay on OVCAR-8 ovarian, in the assay with SF-268 CNS, in the assay on SK-OV-3 ovarian and in the assay on TK-10 renal was over 100 µM throughout.
`CCN(CC)CCCNC(=O)c1ccccc1Nc1c(Cl)cccc1Cl`: the TGI in the assay with ACHN renal was determined as 21.8 µM; in the assay on CCRF-CEM leukemia, 21.3 µM; in the assay on HOP-62 NSCLC, 24.2 µM; with IGROV1 ovarian it was 34 µM; in the assay with OVCAR-8 ovarian, 31.6 µM; with SF-268 CNS, 30.2 µM. The TGI with SK-OV-3 ovarian is 27.7 µM; in the assay on SNB-75 CNS it was 15.4 µM; in the assay on TK-10 renal, 23.7 µM.
With `Oc1ccccc1CNCc1ccccc1O`, the TGI in the assay with A498 renal, in the assay with ACHN renal, in the assay with CCRF-CEM leukemia, in the assay with HOP-62 NSCLC, in the assay with IGROV1 ovarian and in the assay on NCI-H460 lung was over 100 µM in each case. Also, the TGI with NCI-H522 lung, in the assay on OVCAR-8 ovarian, in the assay on SF-268 CNS, in the assay with SK-OV-3 ovarian, in the assay with SNB-75 CNS and in the assay with TK-10 renal was over 100 µM in each case.
`Nc1n[nH]c(N)n1`: the TGI was over 10000 µM in the assay with A498 renal; over 10000 µM in the assay with ACHN renal; over 9030 µM in the assay with CCRF-CEM leukemia; 3550 µM in the assay on HOP-62 NSCLC; over 7740 µM with IGROV1 ovarian; 8220 µM in the assay on NCI-H460 lung. The TGI in the assay with NCI-H522 lung is 4640 µM; in the assay with OVCAR-8 ovarian it was over 10000 µM; in the assay on SF-268 CNS, over 10000 µM; with SK-OV-3 ovarian it was over 3570 µM; with SNB-75 CNS, over 10000 µM; in the assay with TK-10 renal, over 10000 µM.
In the case of `O=C(N/N=C/c1cc(Cl)cc(Cl)c1[OH2+])c1ccncc1.O=S(=O)([O-])[O-].[Fe+2]`, the TGI with ACHN renal came to 28.1 µM; in the assay on CCRF-CEM leukemia, 15.8 µM; in the assay with HOP-62 NSCLC it was 34.9 µM; in the assay on IGROV1 ovarian it was 15.4 µM; in the assay on NCI-H460 lung it was 22.4 µM; in the assay with NCI-H522 lung, 7.44 µM. For the same molecule, the TGI with OVCAR-8 ovarian is over 100 µM; with SF-268 CNS, over 100 µM; with SK-OV-3 ovarian, over 100 µM; in the assay with SNB-75 CNS it was over 100 µM; in the assay with TK-10 renal it was 56 µM.
For the molecule `COc1cccc2c1C(=O)c1c(O)c3c(c(O)c1C2=O)CC(O)(C(C)=O)CC3OC1OC(COC(C)=O)C(OC(C)=O)C(OC(C)=O)C1OC(C)=O` (stereo not drawn), the TGI in the assay on ACHN renal was 87.6 µM; with CCRF-CEM leukemia, 0.131 µM; in the assay with HOP-62 NSCLC, 33.2 µM; in the assay with IGROV1 ovarian, 47.5 µM; in the assay on NCI-H460 lung, over 100 µM; with NCI-H522 lung it was over 100 µM. Besides, the TGI is 37.2 µM in the assay on OVCAR-8 ovarian; 55.1 µM in the assay on SF-268 CNS; over 100 µM in the assay with SK-OV-3 ovarian; 27 µM in the assay on SNB-75 CNS; 61.8 µM with TK-10 renal.
For `CCCCCC1CC(C(C)=O)CN1c1ccc(F)cc1` (stereo not drawn), the TGI is over 100 µM with A498 renal; over 100 µM in the assay with ACHN renal; over 100 µM in the assay on NCI-H460 lung; 56.5 µM with NCI-H522 lung; over 100 µM in the assay on OVCAR-8 ovarian; over 100 µM in the assay on SF-268 CNS. For the same molecule, the figures for the TGI with SNB-75 CNS and in the assay with TK-10 renal were 86.5 µM and over 100 µM, respectively.
